Assay results reported in patent US10890557B2, “Electrochemical biosensor” (I-SENS, INC., priority 2014, dated 2021).

What was measured:
[1] = test system: FAD-glucose dehydrogenase (FAD-GDH); format: biochemical; details: pH 7.4
Protocol: To verify the electrochemical properties of osmium complex, cyclic voltammetry was performed. Using a carbon electrode as the working electrode, platinum as the auxiliary electrode, and an Ag/AgCl (sat. KCl) electrode as a reference electrode, the current was measured by changing the glucose concentration in a mixed solution including FAD-glucose dehydrogenase (FAD-GDH) 10 mg/mL, osmium complex 30 mmol and 0.1 M PBS (pH 7.4).

[2] = Text: In subsequent examples, an osmium complex sodium salt was used by substituting the osmium complex with NaOH at 1:3 equivalent ratios.
[3] = Stability test: UV-visible spectrum change over time in aqueous solution; format: physicochemical
Protocol: Specifically, the UV-visible spectrum of an aqueous solution of 1 mg of each osmium complex, ruthenium hexamine, and Ferricyanide dissolved in 1 mL of 0.1 M PBS (pH 7.4) was measured and stored at room temperature for 11 days.

Question: For Os(dcbpy)2Cl2 [osmium complex], which response slope [1] is on record?
Answer: The response slope was 77.1 nA/(mg/dL).

Question: What about the solubility in water [2] of the same molecule?
Answer: The solubility in water was “low solubility in water”.

Question: And the “UV-visible spectrum change over time” value ([3]; pH 7.4)?
Answer: Its value is “the absorbance of absorption peaks at 400 nm and 520 mm decreased with time”.

Question: For N.N.N.N.N.N.[Cl-].[Cl-].[Cl-].[Ru+3] [ruthenium hexamine, Hexamine ruthenium chloride [Ru(NH3)6Cl3], reference compound], which “UV-visible spectrum change over time” value ([3]; 1 mg in 1 mL 0.1 M PBS (pH 7.4), room temperature, 11 days) is on record?
Answer: Its value is “no change in the UV-visible spectrum was observed over time”.
